In article PMC11589570, “Critical assessment of LC3/GABARAP ligands used for degrader development and ligandability of LC3/GABARAP binding pockets” (Nature Communications, 2024):
Read-outs that look alike come from different tables or passages of the source.

Biological target: GABARAP (Homo sapiens, UniProt O95166)
Format: binding
Parameters: CSP induced: unit not given here
Conditions: for CSP: GABARAP:TH152 molar ratio 1:2

Chain of GABARAP (O95166 1-116): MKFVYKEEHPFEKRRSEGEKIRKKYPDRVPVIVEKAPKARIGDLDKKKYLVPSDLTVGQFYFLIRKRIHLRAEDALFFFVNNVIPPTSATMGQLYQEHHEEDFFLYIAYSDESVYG

CSP induced (F77 HN resonance, molar ratio TH152:GABARAP 0.125): 0.00585
CSP induced (F77 HN resonance, molar ratio TH152:GABARAP 0.25): 0.01072
CSP induced (F77 HN resonance, molar ratio TH152:GABARAP 0.5): 0.01977
CSP induced (F77 HN resonance, molar ratio TH152:GABARAP 1): 0.04412
CSP induced (F77 HN resonance, molar ratio TH152:GABARAP 2): 0.07555
CSP induced (F77 HN resonance, molar ratio TH152:GABARAP 4): 0.08937
CSP (GABARAP residue A36): 0.025 ppm
CSP (GABARAP residue A39): 0.019 ppm
CSP (GABARAP residue A72): 0.005 ppm
CSP (GABARAP residue A75): 0.00571 ppm
CSP (GABARAP residue A108): 0.038 ppm
CSP (GABARAP residue D27): 0.012 ppm
CSP (GABARAP residue D43): 0.019 ppm
CSP (GABARAP residue D45): 0.052 ppm
CSP (GABARAP residue D54): 0.019 ppm
CSP (GABARAP residue D74): 0.004 ppm
CSP (GABARAP residue D102): 0.027 ppm
CSP (GABARAP residue D111): 0.080 ppm
CSP (GABARAP residue E7, estimated): 0.005 ppm
CSP (GABARAP residue E8): 0.010 ppm
CSP (GABARAP residue E12): 0.005 ppm
CSP (GABARAP residue E17): 0.025 ppm
CSP (GABARAP residue E19): 0.021 ppm
CSP (GABARAP residue E34): 0.056 ppm
CSP (GABARAP residue E73): 0.015 ppm
CSP (GABARAP residue E97): 0.019 ppm
CSP (GABARAP residue E100): 0.010 ppm
CSP (GABARAP residue E101, estimated): 0.015 ppm
CSP (GABARAP residue E112): 0.029 ppm
CSP (GABARAP residue F3): 0.007 ppm
CSP (GABARAP residue F11): 0.00637 ppm
CSP (GABARAP residue F60): 0.060 ppm
CSP (GABARAP residue F62): 0.051 ppm
CSP (GABARAP residue F77): 0.076 ppm
CSP (GABARAP residue F78): 0.035 ppm
CSP (GABARAP residue F79): 0.034 ppm
CSP (GABARAP residue F103): 0.019 ppm
CSP (GABARAP residue F104): 0.027 ppm
CSP (GABARAP residue G18): 0.016 ppm
CSP (GABARAP residue G42): 0.033 ppm
CSP (GABARAP residue G58): 0.028 ppm
CSP (GABARAP residue G116): 0.011 ppm
CSP (GABARAP residue H9, estimated): 0.005 ppm
CSP (GABARAP residue H69): 0.044 ppm
CSP (GABARAP residue H98): 0.018 ppm
CSP (GABARAP residue H99): 0.035 ppm
CSP (GABARAP residue I21): 0.030 ppm
CSP (GABARAP residue I32): 0.077 ppm
CSP (GABARAP residue I41): 0.054 ppm
CSP (GABARAP residue I64): 0.020 ppm
CSP (GABARAP residue I68): 0.084 ppm
CSP (GABARAP residue I107): 0.011 ppm
CSP (GABARAP residue K2): 0.014 ppm
CSP (GABARAP residue K6, estimated): 0.005 ppm
CSP (GABARAP residue K13): 0.013 ppm
CSP (GABARAP residue K20): 0.009 ppm
CSP (GABARAP residue K23): 0.019 ppm
CSP (GABARAP residue K24): 0.039 ppm
CSP (GABARAP residue K35): 0.019 ppm
CSP (GABARAP residue K38): 0.015 ppm
CSP (GABARAP residue K46): 0.079 ppm
CSP (GABARAP residue K47): 0.091 ppm
CSP (GABARAP residue K48): 0.061 ppm
CSP (GABARAP residue K66): 0.014 ppm
CSP (GABARAP residue L44): 0.040 ppm
CSP (GABARAP residue L50): 0.088 ppm
CSP (GABARAP residue L55): 0.088 ppm
CSP (GABARAP residue L63): 0.085 ppm
CSP (GABARAP residue L70): 0.021 ppm
CSP (GABARAP residue L76): 0.043 ppm
CSP (GABARAP residue L105): 0.011 ppm
CSP (GABARAP residue M1): 0.016 ppm
CSP (GABARAP residue N81): 0.019 ppm
CSP (GABARAP residue P10, estimated): 0.005 ppm
CSP (GABARAP residue P26, estimated): 0.080 ppm
CSP (GABARAP residue P30, estimated): 0.060 ppm
CSP (GABARAP residue P37, estimated): 0.020 ppm
CSP (GABARAP residue P52, estimated): 0.030 ppm
CSP (GABARAP residue Q59): 0.033 ppm
CSP (GABARAP residue Q96): 0.025 ppm
CSP (GABARAP residue R14, estimated): 0.005 ppm
CSP (GABARAP residue R15, estimated): 0.005 ppm
CSP (GABARAP residue R22): 0.015 ppm
CSP (GABARAP residue R28): 0.021 ppm
CSP (GABARAP residue R40): 0.023 ppm
CSP (GABARAP residue R65): 0.067 ppm
CSP (GABARAP residue R67): 0.024 ppm
CSP (GABARAP residue R71): 0.007 ppm
CSP (GABARAP residue S16): 0.016 ppm
CSP (GABARAP residue S53): 0.013 ppm
CSP (GABARAP residue S110): 0.015 ppm
CSP (GABARAP residue S113): 0.021 ppm
CSP (GABARAP residue T56): 0.032 ppm
CSP (GABARAP residue V29): 0.058 ppm
CSP (GABARAP residue V31): 0.082 ppm
CSP (GABARAP residue V33): 0.031 ppm
CSP (GABARAP residue V51): 0.069 ppm
CSP (GABARAP residue V57): 0.065 ppm
CSP (GABARAP residue V80): 0.037 ppm
CSP (GABARAP residue V114): 0.00433 ppm
CSP (GABARAP residue Y25): 0.070 ppm
CSP (GABARAP residue Y49): 0.168 ppm
CSP (GABARAP residue Y61): 0.053 ppm
CSP (GABARAP residue Y106): 0.025 ppm
CSP (GABARAP residue Y109): 0.022 ppm
CSP (GABARAP residue Y115): 0.00181 ppm
CSP induced (K46 HN resonance, molar ratio TH152:GABARAP 0.125): 0.0126
CSP induced (K46 HN resonance, molar ratio TH152:GABARAP 0.25): 0.02165
CSP induced (K46 HN resonance, molar ratio TH152:GABARAP 0.5): 0.03932
CSP induced (K46 HN resonance, molar ratio TH152:GABARAP 1): 0.07004
CSP induced (K46 HN resonance, molar ratio TH152:GABARAP 2): 0.07915
CSP induced (K46 HN resonance, molar ratio TH152:GABARAP 4): 0.08104
CSP induced (Y25 HN resonance, molar ratio TH152:GABARAP 0.125): 0.00667
CSP induced (Y25 HN resonance, molar ratio TH152:GABARAP 0.25): 0.01133
CSP induced (Y25 HN resonance, molar ratio TH152:GABARAP 0.5): 0.01934
CSP induced (Y25 HN resonance, molar ratio TH152:GABARAP 1): 0.03193
CSP induced (Y25 HN resonance, molar ratio TH152:GABARAP 2): 0.06979
CSP induced (Y25 HN resonance, molar ratio TH152:GABARAP 4): 0.08466
Structure (SMILES): CCCCCCC(Sc1nc(Cl)cc(Nc2nc(-c3ccc(C(=O)O)cc3)cs2)n1)C(=O)O (centres unmarked) [compound 21]
interaction in 2D NMR titration (GABARAP): interacted with TH152 via the LDS binding site
